Test [1] has as its system Collagen-1. Briefly: Liver gene expression by quantitative Real Time PCR: collagen-1. Format: in vivo, mice. On the procedure: (§1) The effect of administration of compound 34 (GED) and the specific CB2 agonist (JWH-133) was evaluated on the level of gene expression of cytokines (IL-1β, TNF-α) and genes involved in the mechanism of fibrosis by quantitative Real Time PCR.
(§2) Total RNA was isolated from livers using Rneasy kit (Macherey Nagel, Hoerdt, France) according to the manufacturer's instructions. RNA quantification was performed using spectrophotometry. After treatment at 37° C. for 30 min with 20-50 units of RNase-free DNase I (Roche Diagnostics Corporation, Indianapolis, IN, USA), oligo-dT primers (Roche Diagnostics Corporation, Indianapolis, USA) were used to synthesize single-stranded cDNA. mRNAs were quantified using SYBR green Master Mix (Applera, Courtaboeuf, France) with murine specific oligonucleotides (see Table 2) in a GeneAmp Abiprism 7000 (Applera, Courtaboeuf, France). In each assay, calibrated and no-template controls were included. Each sample was run in triplicate. SYBR green dye intensity was analyzed using the Abiprism 7000 SDS software (Applera, Courtaboeuf, France). All results were normalized to the unaffected housekeeping gene β-actin.
(In qPCR the cycle at which signal appears reflects the starting amount.)

In test [2] the test system is α-SMA. Briefly: Liver gene expression by quantitative Real Time PCR: α-SMA. It is filed as in vivo, mice. To be noted: liver mRNA, normalized to β-actin; CCl4 group 65.51 ± 22.24. The protocol:
as §1, §2

For test [3], the system named is Male C57bl6 mice. Briefly: CCl4-induced liver fibrosis: histology (Metavir score). Format: in vivo. The protocol:
Liver fibrosis was induced in Male C57bl6 mice (Charles River, l'Arbresle, France) by injection of carbon tetrachloride (CCl4). The C57bl6 mice weighed 22-25 g and were maintained in laboratory conditions for 1 week before experiment. Animals were housed 5 per cage with food and water available ad libitum.
The effectiveness of compound 34 (specific ligand of PPARg) as compared to JWH-133 (anti-fibrogenic agent) was evaluated. Compound 34 was administered orally in combination with CCl4 injections for ca. 5 weeks. Compound 34 was dosed daily at 200 uL of a 30 mM solution. JWH-133 was administered daily via intraperitoneal injections at 3 mg/kg (dose volume=100 uL). The model of liver fibrosis is induced by chronic exposure to increased dosages of CCl4 for 5 weeks. The first week, mice received an intraperitoneal injection of CCl4, resuspended in olive oil, at the dosage of 80 μl/kg of mice body weight twice a week. At week 2, 3 injections of CCl4 at the dosage of 160 μl/kg were performed every two days. At week 3, 3 injections of CCl4 at the dosage of 240 μl/kg were performed every two days. At week 4, 3 injections of CCl4 at the dosage of 320 μl/kg were performed every two days. Mice were euthanized, at week 5, 3 days after the last CCl4 administration.
The formalin-fixed liver tissue was processed and 5 μm thick paraffin sections were stained with hematoxylin and eosin (H&E) and Picrosirius red staining (specific coloration for collagen in tissue sections) to evaluate the degree of fibrosis in the liver. Each section was analyzed blindly by 3 different experimenters for the quantification of the degree of fibrosis for each lobe of the liver (5) using the Metavir score (see FIG. 2A for Metavir Score chart). The photographs seen in FIG. 2B were obtained with a 20× objective.

For the compound `CCCC(C)(C)c1ccc2c(c1)OC(C)(C)[C@@H]1CC=C(C)C[C@@H]21` [JWH-133], the “liver concentration of collagen-1 mRNA” value in test [1] (CCl4 mice, result in words) is “normalizes”. For the same compound, in test [1] (liver mRNA, normalized to β-actin, CCl4 group 138.12 ± 34.68), the Collagen-1 was 87.59 ± 16.97. In test [2], the α-SMA amounted to 30.07 ± 4.7. Further, in test [3] (FIG. 3B), the “decrease of the fibrotic score (adapted Metavir score) compared to untreated animals” value is reported as 14.2%. In addition, the “mean Metavir score (FIG. 3A)” value in test [3] (compound 34 30 mM 200 uL oral daily, JWH-133 3 mg/kg i.p. daily, CCl4 vehicle group 2.5±0.5) is reported as 2±0. In test [3] (result in words), the “degree of fibrosis (Metavir)” value is “decrease in the degree of fibrosis from severe to moderate fibrosis”. Also, in test [3] (summary statement), the “decrease of hepatic fibrotic lesions” value came out at 14%.

These data come from patent US12291494B2, “Methods of treating fibrosis” (Nogra Pharma Limited, priority 2012, dated 2025).
